Test results from patent US20260007613A1, “LONG-ACTING LOW-TOXICITY NOVEL CATIONIC LIPID COMPOUNDS AND COMPOSITION THEREOF” (BEIJING YOUCAREKECHUANG PHARMACEUTICAL TECHNOLOGY CO., LTD., priority 2023, published 2026).

Tests used:
[1] = Particle size and polydispersity index (PDI) of lipid nanoparticles by dynamic light scattering; type: physicochemical; settings: LNP formulation prepared from the cationic lipid, 25° C.
Method: The particle size and polydispersity index (PDI) were determined by dynamic light scattering using Malvern laser particle size analyzer.
10 μL of the liposome solution was weighed, diluted to 1 mL with RNase-free deionized water, and added to the sample pool. Each sample was measured in triplicate. The measurement conditions were: […] scattering angle, and 25° C.

[2] = system: female BALB/C mice; assay: Live imaging in mice: protein expression of Fluc-mRNA delivered by LNP formulations; type: in vivo
Method: In addition, the protein expression and duration of mRNA in mice delivered by the cationic lipid delivery carriers designed were also verified.
The LNP formulation containing […] Fluc-mRNA was injected intramuscularly into female BALB/C mice aged 4 to 6 weeks old and weighed 17 to 19 g, and the mice were intraperitoneally injected with fluorescent imaging substrate at specific time points after administration (6 h, 24 h, 48 h and 7 d), where the mice were free to move for 5 minutes, and then the average radiation intensity (corresponding to fluorescence expression intensity) of the protein expression of the mRNA carried by the LNP in the mice was detected by the IVIS Spectrum small animal live imaging device.

[3] = system: 293T cells; assay: Cell survival rate determination (CCK-8); type: cell-based; settings: LNP formulation of Fluc-mRNA, 24 hours, CCK-8
Method: (§1) Cell recovery and passage: 293T cells were recovered, cultured in a culture dish, and passaged to the required number of cells.
(§2) Seeding plate: The cells in the culture dish were digested and counted. Cells were spread in a 96-well plate at 10,000 cells per well and in a 12-well plate at 150,000 cells per well. Cells were cultured overnight until the cells adhered to the wall.
(§3) Cell recovery and passage: the method was the same as in Example 3.
(§4) Seeding plate: the method was the same as in Example 3.
An LNP formulation containing […] of Fluc-mRNA (the carrier components of the LNP formulation were cationic lipid, neutral lipid, structured lipid and polymer-conjugated lipid with a molar ratio of 49:10:39.5:1.5, wherein the cationic lipid was listed in Table 1) and the formulation of Lipofectamine 3000 were added to the cell culture medium of a 96-well plate, and further cultivated for 24 hours. 10 μL of CCK-8 solution was then added to each well, and the culture plate was incubated in an incubator for 1 hour. The absorbance at 450 nm was measured by a microplate reader.
Cell survival rate can represent the toxicity of cationic lipids to cells. The higher the cell survival rate, the lower the toxicity to cells.

[4] = system: 293T cells; assay: Fluorescent detection of Fluc-mRNA (cell transfection efficiency of LNP formulations); type: cell-based; settings: for Relative light unit (RLU): LNP formulation of Fluc-mRNA, 96-well plate, 24 hours; for Multiples (YK-305): RLU of YK-305 / RLU of the lipid of the line; for Multiples (YK-310): RLU of YK-310 / RLU of the lipid of the line; for Multiples (YK-312): RLU of YK-312 / RLU of the lipid of the line; for Ratio relative to SM-102: RLU of the lipid / RLU of SM-102, times that of SM-102; for Multiples (YK-318): RLU of YK-318 / RLU of the lipid of the line; for Multiples (YK-318) / Multiples (YK-319): Tables 5, 7, 11; for Multiples (YK-319): RLU of YK-319 / RLU of the lipid of the line
Method: as §1, §2, §3, §4
An LNP formulation containing […] of Fluc-mRNA (the carrier components of the LNP formulation were cationic lipid, neutral lipid, structured lipid and polymer-conjugated lipid with a molar ratio of 49:10:39.5:1.5, wherein the cationic lipid was listed in Table 1) was added to the cell culture medium of a 96-well plate, and further incubated for 24 hours. The corresponding reagent was added according to the instructions of the […] Luciferase Assay Kit, and the fluorescence expression intensity of each well was detected by an IVIS fluorescence detection system. This test verified the transfection efficiencies of LNP formulations in cells, see Tables 4-7 for specific test results.

[5] = 6 h after intramuscular injection
[6] = 24 h after intramuscular injection
[7] = 48 h after intramuscular injection
[8] = 7 d after intramuscular injection

| PDI (%) [1] | Particle size (nm) [1] | Compound | average radiation intensity [2, 5] | average radiation intensity [2, 6] | average radiation intensity [2, 7] | average radiation intensity [2, 8] | Cell survival rate (%) [3] | Relative light unit (RLU) [4] | Multiples (YK-305) [4] | Multiples (YK-310) [4] | Multiples (YK-312) [4] | Ratio relative to SM-102 [4] | Multiples (YK-318) [4] | Multiples (YK-319) [4] |
| --- | --- | --- | --- | --- | --- | --- | --- | --- | --- | --- | --- | --- | --- | --- |
| 27.6% | 232 nm | CCCCCCCCCCOC(=O)CCCN(CCCCCC(=O)OCCC(CCCCCC)CCCCCC)C[C@H](O)CN(CC)CCO [YK-309, (S)-3-hexylnonyl-6-(4-(decyloxy)-4-oxobutyl)(2-hydroxy-3-(((2-hydroxyethyl)(ethyl)amino)propyl)amino)hexanoate] | 65680 | 16820 | 6551 | 1256 | 31.61% | 125370 RLU | 218.62 | 205.77 | 160.71 | 0.08 | – | – |
| 39.1% | 182 nm | CCCCCCCCCCC(CCCCCCCCCC)CCCOC(=O)CCCN(CCCC(=O)OCCCC(CCCCCCCCCC)CCCCCCCCCC)C[C@H](O)CN(CCO)CCO [YK-321, (S)-bis(4-decyltetradecyl)-4,4′-((3-(bis(2-hydroxyethyl)amino)-2-hydroxypropyl)azanediyl)dibutyrate] | 615600 | 101230 | 36565 | 6586 | 72.34% | 1403416 RLU | 18.33 | 18.38 | 14.36 | 0.87 | 7.97 | 17.43 |
| 13.4% | 186 nm | CCCCCCCCCCOC(=O)CCCN(CCCCCC(=O)OCCC(CCCCCC)CCCCCC)C[C@H](O)CN(C)CCO [YK-302] | 14580 | 8956 | 4025 | 884 | 16.43% | 27778 RLU | 936.71 | 928.69 | 725.34 | – | 402.84 | 880.83 |
| 32.2% | 210 nm | CCCCCCCCCCC(CCCCCCCCCC)CCCOC(=O)CCCN(CCCC(=O)OCCCC(CCCCCCCCCC)CCCCCCCCCC)C[C@H](O)CN(C)CCO [YK-307] | – | – | – | – | 61.14% | 4557420 RLU | 6.01 | 5.66 | 4.42 | – | 2.46 | 5.37 |
| 7.0% | 192 nm | CCCCCCCCCCOC(=O)CCCN(CCCCCC(=O)OCC(CCCCCCCC)CCCCCCCC)C[C@H](O)CN(C)CCO [YK-301, (R)-2-octyldecyl-6-((4-(decyloxy)-4-oxobutyl)((2-hydroxy-3-(2-hydroxyethyl)(methyl)amino)propyl)amino)hexanoate] | – | – | – | – | 52.96% | 842452 RLU | 32.53 | 30.62 | 23.92 | – | 13.28 | 29.04 |
| 19.6% | 212 nm | CCCCCCCCC(CCCCCCCC)OC(=O)CCCCCCCN(CCCCCCCC(=O)OC(CCCCCCCC)CCCCCCCC)C[C@H](O)CN(CCO)CCO [YK-320, (S)-Bis(heptadecan-9-yl)-8,8′-((3-(bis(2-hydroxyethyl)amino)-2-hydroxypropyl)azanediyl)dicaprylate] | – | – | – | – | 71.07% | 2702966 RLU | 10.14 | 9.54 | 7.45 | 1.69 | 4.14 | 9.05 |
| 17.5% | 188 nm | CCCCCCCCC(CCCCCCCC)COC(=O)CCCCCN(CCCCCC(=O)OCC(CCCCCCCC)CCCCCCCC)C[C@H](O)CN(CCO)CCO [YK-316, (S)-bis(2-octyldecyl)-6,6′-(((3-(bis(2-hydroxyethyl)amino)-2-hydroxypropyl)azanediyl))dihexanoate] | – | – | – | – | 70.53% | 4810210 RLU | 5.70 | 5.36 | 4.19 | 3.00 | 2.33 | 5.09 |
